In general, melting point refers to the temperature, or range, at which the solid turns liquid.

The text below walks through data of US8084490B2, “Sulfamate and sulfamide derivatives useful for the treatment of epilepsy and related disorders” (Janssen Pharmaceutica N.V., priority 2004, dated 2011).

For data set [1], the system named is CF-1 male albino mice. As to the kind of experiment: Maximal Electroshock Test (MES). The class given is in vivo. The settings on record: oral; for MES Activity (in words): time not stated. As to the method: Anticonvulsant activity was determined using the MES test, run according to the procedure described in detail below. Swinyard E A, Woodhead J H, White H S, Franklin M R. Experimental selection, quantification, and evaluation of anticonvulsants. In Levy R H, et al., eds. Antiepileptic Drugs. 3rd ed. New York: Raven Press, 1989:85-102
CF-1 male albino mice (25-35 g) were fasted for 16 hours before testing. Mice were randomly selected into control and test groups, with the animals dosed with vehicle or test compound, at varying concentrations, respectively. On the study date, at 30 minutes prior to shock, the mice were orally dosed with vehicle (0.5% methylcellulose) or test compound (100-300 mg/kg). Seizures were induced by trans-corneal electric shock using a 60-Hz alternating current, 50 mA, delivered for 0.2 sec. The mice in the test groups were subjected to electrical stimulus at time intervals between 15 minutes and 4 hours following administration of test compound. […] The test was complete when the entire course of the convulsion has been observed (typically, less than 1 minute after electrical stimulation), and the mice were then immediately euthanized by carbon dioxide inhalation.
Abolition of the full body tonic extensor component of the seizure was taken as the endpoint of the test. […] The ED50 value of the test compound (calculated when appropriate) was the calculated dose required to block the hind limb tonic-extensor component of the MES-induced seizure in 50% of the rodents tested. A probit analysis was used to calculate the ED50 and 95% fiducial limits (FL).
Representative compounds of the present invention were tested according to the procedure described above, with results as listed in Table 4 below. Results are listed as number of mice with full body tonic extension prevented/total number of mice tested @ time (at a given test compound dosage level).

For data set [2], the system named is carbonic anhydrase. The note with it: background statement, no assay details; cited from earlier work.

Compound `NS(=O)(=O)OC[C@H]1COc2cc(Cl)c(Cl)cc2O1` [ID No. 27, Sulfamic acid, 6.7 dichloro-2,3-dihydro-benzo[1,4]dioxin-2-ylmethyl ester] gave a melting point of 109 to 111 °C. Further, the “MES Activity: number of mice with full body tonic extension prevented/total number of mice tested” value in data set [1] (100 mg/kg, @ 4 h) is recorded as 5/5 @ 4 h (100 mg/kg).

Turning to `CN(C)S(=O)(=O)NCC1COc2ccccc2O1` (stereo not shown) [ID No. 6, N-(2,3-Dihydro-benzo[1,4]dioxin-2-ylmethyl)-N′,N′ dimethylsulfamide], the melting point fell in the range of 76 to 78 °C.

In the case of `CC1(C)O[C@@H]2[C@@H](CO[C@@]3(COS(N)(=O)=O)OC(C)(C)O[C@@H]23)O1` [Topiramate], the carbonic anhydrase inhibition entry in data set [2] is listed as “single digit micromolar”.

`CN(CC1COc2ccccc2O1)S(N)(=O)=O` (stereo not shown) [ID No. 7, N-(2,3-Dihydro-benzo[1,4]dioxin-2-ylmethyl)-N-methylsulfamide]: the melting point fell in the range of 97 to 98 °C.

In the case of `NS(=O)(=O)OCC1CCc2ccccc2O1` (stereo not shown) [ID No. 11, Chroman-2-ylmethylsulfamate], the melting point lay in the range of 87 to 90 °C.

For `NS(=O)(=O)OC[C@H]1COc2cc(Cl)ccc2O1` (stereo in doubt) [ID No. 12, Sulfamic acid, 6-chloro-2,3-dihydro-benzo[1,4]dioxin-2-ylmethyl ester], the melting point fell in the range of 113 to 116 °C.

For `Cc1ccc2c(c1)O[C@@H](CNS(N)(=O)=O)CO2` [ID No. 19, (2S)-(−)-N-(7-Methyl-2,3-dihydro-benzo[1,4]dioxin-2-ylmethyl)-sulfamide], the “MES Activity: number of mice with full body tonic extension prevented/total number of mice tested” value in data set [1] (300 mg/kg, @ 0.5 h) was 5/5 @ 0.5 h (300 mg/kg).

`NS(=O)(=O)NCCC1COc2ccccc2O1` (stereo not shown) [ID No. 16, 2-(2,3-Dihydro-benzo[1,4]dioxin-2-yl)-ethylsulfamide] registered a melting point of 101 to 103 °C. Moreover, the “MES Activity: number of mice with full body tonic extension prevented/total number of mice tested” value in data set [1] (300 mg/kg, @ 0.5 h) is given as 5/5 @ 0.5 h (300 mg/kg).

For the compound `NS(=O)(=O)NCC1CCc2ccccc2O1` (stereo not shown) [ID No. 10, Chroman-2-ylmethylsulfamide], the melting point is 100 to 101 °C.

For the compound `Nc1ccc2c(c1)O[C@@H](CNS(N)(=O)=O)CO2` [ID No. 36, (2S)-(−)-N-(7-Amino-2,3-dihydro-benzo[1,4]dioxin-2-ylmethyl)-sulfamide], the “MES Activity (in words)” value in data set [1] (100 mg/kg) was “Inactive @ 100 and 300 mg/kg”; in data set [1] (300 mg/kg), “Inactive @ 100 and 300 mg/kg”.

With `NS(=O)(=O)NC[C@H]1COc2cc(Cl)c(Cl)cc2O1` [ID No. 29, (2S)-(−)-N-(6,7 Dichloro-2,3-dihydro-benzo[1,4]dioxin-2-ylmethyl)-sulfamide], the melting point lay in the range of 119 to 121 °C. In addition, in data set [1] (100 mg/kg, @ 4 h), the “MES Activity: number of mice with full body tonic extension prevented/total number of mice tested” value is recorded as 3/5 @ 4 h (100 mg/kg).

`NS(=O)(=O)NC[C@H]1COc2ccccc2O1` [ID No. 4, (2S)-(−)-N-(2,3-Dihydro-benzo[1,4]dioxin-2-ylmethyl)-sulfamide]: in data set [1] (300 mg/kg, @ 1 h), the “MES Activity: number of mice with full body tonic extension prevented/total number of mice tested” value was 5/5 @ 1 h (300 mg/kg).
